# Experimental data reported in article PMC10539800, “Small-molecule inhibitors of the PDZ domain of Dishevelled proteins interrupt Wnt signalling” (Magnetic resonance, 2021).
# “Also recorded” adds a separate entry of the source.
# Legend:
# SW480 cells [1] = experiment: Trans-well migration assay; assay type: cell-based; settings: 24 h, 50–100 µM
# Method: (§1) Canonical Wnt signalling contributes to cancer progression by inducing high motility and invasion of cancer cells while retaining the self-renewal property of cancer-initiating cells (Fritzmann et al., 2009; Sack et al., 2011; Vermeulen et al., 2010; Malanchi et al., 2008). […] Compounds 18 and 20 prevented increased cell migration and sphere formation.
# Cell motility was assessed using 24-well trans-well assay (pore diameter: 8 µm , Corning). SW480WL cells were seeded in the upper chamber in serum-free DMEM with 0.1 % BSA; 20 % serum was supplemented to medium in the lower chamber. After incubation with Wnt3a in the presence of Dvl inhibitors for 24 h, non-migrant cells were scraped off using a cotton swab; the migrated cells on the filters were stained with DAPI, photographed, and counted.
# [2] = system: canonical Wnt signalling (β-catenin/TCF-dependent GFP) in HEK293 reporter cell line; experiment: TOP-GFP reporter assay (Wnt3a-induced); assay type: cell-based; settings: Homo sapiens, 24 h, read-out: IC 50 Wnt3a-induced Wnt activation (TOP-GFP)
# Excerpt: Taking advantage of a lentivirus that encodes GFP in a β -catenin/TCF-dependent fashion (TOP-GFP, SABiosciences), a stable HEK293 reporter cell line was established to evaluate the inhibitory effect of compounds 18, 20, and 21 on canonical Wnt signalling activity. TOP-GFP expression in this cell line was induced by the ligand Wnt3a, which directly activates the Frizzled–Dishevelled complex and protects β -catenin from degradation by the destruction complex (Fig. 2a).
# The lentivirus particle (CCS-018L, SABiosciences) encoding GFP under the control of a basal promoter element (TATA box) joined to tandem repeats of a consensus TCF/LEF binding site was transfected into HEK293 cells. Stable cells were selected by puromycin (2 µgmL^-1 ) treatment. Wnt signalling activity indicated by GFP intensity was measured by flow cytometry after 24 h incubation with recombinant mouse Wnt3a (100 ng mL ^-1 ) or GSK3 inhibitor CHIR99021 (3 µM ) in the presence of Dvl inhibitors.
# Dvl-3 PDZ = molecular target: T1, Dvl-3 PDZ (Homo sapiens, UniProt Q92997); experiment: Binding constant by isothermal titration calorimetry (ITC); settings: for T Δ S Dvl-3 PDZ / Δ G Dvl-3 PDZ / Δ H Dvl-3 PDZ: ITC; for Kd: by ITC, one-site binding model, 25 °C, read-out: K D Dvl-3 PDZ
# T1 construct: spectra of Dvl-3 PDZ in the absence and presence of the compound; His-tag (cleaved yes); made in house
# T1 sequence (Q92997 243-336): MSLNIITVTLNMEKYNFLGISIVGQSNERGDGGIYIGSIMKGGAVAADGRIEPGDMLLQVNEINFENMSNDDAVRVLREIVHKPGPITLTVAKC
# Method: (§5) Isothermal titration calorimetry (ITC) experiments were performed using a VP-ITC system (MicroCal). Protein in 20 mM HEPES buffer and 50 mM NaCl (pH 7.4) was centrifuged and degassed before the experiment. A 200 µM ligand solution containing 2 % DMSO was injected 30 times in 10 µL aliquots at 120 s intervals with a stirring speed of 1000 rpm into a 1.4 mL sample cell containing the Dvl PDZ domain at a concentration of 20 µM at 25 ^∘ C. Control experiment was initially determined by titrating ligand into buffer at the same conditions. […] Thermodynamic properties and binding constants were determined by fitting the data with a non-linear least-squares routine using a single-site binding model with Origin (OriginLab) for ITC v.7.2 (MicroCal).
# [3] = system: Wnt target genes (Axin2, LEF1, Bmp2) in HeLa cells; experiment: qRT-PCR of Wnt target genes; assay type: cell-based; settings: HeLa cells treated with Wnt3a, 24 h; 150 µM
# Excerpt: (§2) Increased β -catenin protein level is a hallmark of active Wnt signalling (Kishida et al., 1999). Once β -catenin is accumulated in the cytoplasm, it can translocate into the nucleus and activate the transcription of Wnt target genes by interacting with transcription factors of the TCF/LEF family (Fig. 2a) (Behrens et al., 1996). […] Increased mRNA levels of the Wnt target genes Axin2, LEF1, and Bmp2 (Riese et al., 1997; Jho et al., 2002; Lewis et al., 2010) were induced by Wnt3a treatment, as measured by qRT-PCR, and these increases were reduced by compounds 18, 20, and 21 (Fig. 2f).
# To measure the Wnt target accumulation at mRNA level, HeLa cells were treated with Wnt3a in the presence of Dvl inhibitors for 24 h. mRNA was extracted according to the standard TRIzol® protocol (Invitrogen) and reverse-transcribed using random primers (Invitrogen) and M-MLV reverse transcriptase (Promega). The qRT-PCR was performed in a iQ5 multi-colour real-time PCR detection system (Bio-Rad) using SYBR® Green (Thermo Scientific) and gene-specific primer pairs of Bmp2, Axin2, LEF1, and β -actin (endogenous control).
# SW480 cells [4] = experiment: Colon sphere culture (sphere formation); assay type: cell-based; settings: serum-free non-adherent culture, 10 d; 25–50 µM
# Method: as §1
# SW480WL cells were trypsinized into single cells, seeded on 24-well cell culture plates, pre-coated with 250 µL poly-HEMA (12 mg mL ^-1 in 95 % ethanol, Sigma) per well, and incubated with Wnt3a in the presence of Dvl inhibitors in the sphere culture medium (F12 : DMEM 1:1 , 1 × B-27 supplement, 20 ng mL ^-1 EGF, 20 ng mL ^-1 FGF, 0.5 % methylcellulose) for 10 d. Numbers of spheres were then counted under the microscope.
# [5] = system: β-catenin protein level in HeLa cells; experiment: Western blotting of β-catenin levels; assay type: cell-based; settings: HeLa cells treated with Wnt3a, 24 h; 150 µM
# Excerpt: as §2
# To assess the β -catenin accumulation in HeLa cells, cells were treated with Wnt3a in the presence of Dvl inhibitors for 24 h and lysed in RIPA buffer (50 mM Tris, pH 8.0, 1 % NP-40, 0.5 % deoxycholate, 0.1 % SDS, 150 mM NaCl). Equal amounts of protein were loaded on a SDS-PAGE. Separated proteins were blotted onto PVDF membranes (polyvinylidene fluoride) for immunoblot analysis using anti- β -catenin antibody (610154, BD). HRP-conjugated anti-mouse antibody (715-035-150, Jackson ImmunoResearch Laboratories) was used for secondary detection with Western lightning chemiluminescence reagent plus (PerkinElmer) and Vilber Lourmat imaging system SL-3.
# Dvl-1 PDZ = molecular target: T2, Dvl-1 PDZ (Homo sapiens, UniProt O14640, C338S/V250I); settings: for T Δ S Dvl-1 PDZ / Δ G Dvl-1 PDZ / Δ H Dvl-1 PDZ: ITC
# T2 sequence (O14640 245-338 V250I/C338S): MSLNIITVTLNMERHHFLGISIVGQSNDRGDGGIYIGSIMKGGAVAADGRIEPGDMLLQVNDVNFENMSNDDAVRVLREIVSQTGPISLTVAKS
# Method: as §5
# Oct4 = experiment: Oct-luciferase reporter assay; assay type: cell-based; settings: stimulated by overexpression of Oct4
# Method: (§3) To further evaluate the specificity of our Dvl inhibitors, the conventional TOPflash (Molenaar et al., 1996) and other luciferase reporter assays were performed.
# (§4) Plasmids encoding a firefly luciferase reporter gene under the control of different responsive elements were transfected into HeLa cells with a pRL-SV40 normalization reporter plasmid using the Lipofectamine 2000 (Invitrogen). After desired treatment, cells were harvested in the passive lysis buffer (Promega), and 15 µL cell lysate was transferred to 96-well LumiNunc plates (Thermo Scientific). Firefly luciferase and Renilla luciferase were detected with the D-luciferin buffer (75 mM HEPES, 4 mM MgSO 4 , 20 mM DTT, 100 µM EDTA, 0.5 mM ATP, 135 µM Coenzyme A, and 100 µM D-Luciferin sodium salt; pH 8.0) and the coelenterazine buffer (15 mM Na4PPi, 7.5 mM NaAc, 10 mM CDTA, 400 mM Na 2 SO 4 , 25 µM APMBT, and 1.1 µM coelenterazine; pH 5.0), respectively, using the CentroXS LB960 lumiometer (Berthold Technologies).
# NF-κB signalling = experiment: NF-κB-luciferase reporter assay; assay type: cell-based; settings: stimulated by recombinant TNFα
# Method: as §3, §4
# [6] = system: Wnt signalling (TOP-luciferase) in HeLa cells; experiment: TOPflash luciferase reporter assay; assay type: cell-based
# Method: as §3, §4
# Notch signalling = experiment: Notch-luciferase reporter assay; assay type: cell-based; settings: stimulated by overexpression of Notch intracellular domain
# Method: as §3, §4
# Dvl PDZ = settings: internal Frizzled sequence; ref Wong et al., 2003; Chandanamali et al., 2009; read-out: K D Dvl PDZ domains; cited from earlier work
compound,measurement,setting,value
Cc1ccc(NS(=O)(=O)c2ccc(CNC(=O)c3n[nH]c4ccccc34)c(Cl)c2)c(C(=O)O)c1 [Compound 18],migration of SW480 cells enhanced by Wnt3a,SW480 cells [1],reduced the migration; also recorded: prevented
same,IC50,[2],50 to 75 µM
same,T Δ S Dvl-3 PDZ,Dvl-3 PDZ,-1.2 kcal mol ^-1
same,Δ G Dvl-3 PDZ,Dvl-3 PDZ,-6.7 kcal mol ^-1
same,Δ H Dvl-3 PDZ,Dvl-3 PDZ,-8.0 kcal mol ^-1
same,n (stoichiometry) Dvl-3 PDZ,Dvl-3 PDZ; ITC one-site fit,1.14
same,Kd,Dvl-3 PDZ,9.4 ± 0.6 µM
same,"transcription of Wnt target genes (Axin2, LEF1, Bmp2)",[3],reduced the transcription
same,sphere formation of SW480 cells enhanced by Wnt3a,SW480 cells [4],reduced sphere formation; also recorded: prevented
same,accumulation of β-catenin,[5],inhibited accumulation
same,T Δ S Dvl-1 PDZ,Dvl-1 PDZ,-4.7 kcal mol ^-1
same,Δ G Dvl-1 PDZ,Dvl-1 PDZ,-7.5 kcal mol ^-1
same,Δ H Dvl-1 PDZ,Dvl-1 PDZ,-12.2 kcal mol ^-1
same,n (stoichiometry) Dvl-1 PDZ,Dvl-1 PDZ; ITC one-site fit,1.12
Cc1ccc(NS(=O)(=O)c2ccc(CNC(=O)c3cc(Br)c[nH]3)c(Cl)c2)c(C(=O)O)c1 [Compound 20],effect on Oct-luciferase,Oct4,no or a mild effect; also recorded: no significant inhibitory effects
same,migration of SW480 cells enhanced by Wnt3a,SW480 cells [1],reduced the migration; also recorded: prevented
same,IC50,[2],50 to 75 µM
same,T Δ S Dvl-3 PDZ,Dvl-3 PDZ,-3.6 kcal mol ^-1
same,Δ G Dvl-3 PDZ,Dvl-3 PDZ,-6.8 kcal mol ^-1
same,Δ H Dvl-3 PDZ,Dvl-3 PDZ,-10.4 kcal mol ^-1
same,Kd,Dvl-3 PDZ,9.8 ± 0.3 µM
same,"transcription of Wnt target genes (Axin2, LEF1, Bmp2)",[3],reduced the transcription
same,sphere formation of SW480 cells enhanced by Wnt3a,SW480 cells [4],reduced sphere formation; also recorded: prevented
same,accumulation of β-catenin,[5],inhibited accumulation
same,effect on NF-κB-luciferase,NF-κB signalling,no or a mild effect; also recorded: no significant inhibitory effects
same,T Δ S Dvl-1 PDZ,Dvl-1 PDZ,-2.2 kcal mol ^-1
same,Δ G Dvl-1 PDZ,Dvl-1 PDZ,-7.2 kcal mol ^-1
same,Δ H Dvl-1 PDZ,Dvl-1 PDZ,-9.4 kcal mol ^-1
same,effect on Chir99021-induced Wnt activation (TOPflash),[6],no or a mild effect
same,effect on TOP-luciferase signals stimulated by Wnt3a,[6],specifically inhibited
same,effect on Notch-luciferase,Notch signalling,no or a mild effect; also recorded: no significant inhibitory effects
Cc1ccc(NS(=O)(=O)c2ccc(CNC(=O)c3cc(Cl)c[nH]3)c(Cl)c2)c(C(=O)O)c1 [Compound 21],IC50,[2],50 to 75 µM
same,T Δ S Dvl-3 PDZ,Dvl-3 PDZ,0.7 kcal mol ^-1
same,Δ G Dvl-3 PDZ,Dvl-3 PDZ,-6.8 kcal mol ^-1
same,Δ H Dvl-3 PDZ,Dvl-3 PDZ,-5.9 kcal mol ^-1
same,Kd,Dvl-3 PDZ,12.5 ± 0.5 µM
same,"transcription of Wnt target genes (Axin2, LEF1, Bmp2)",[3],reduced the transcription
same,accumulation of β-catenin,[5],inhibited accumulation
same,T Δ S Dvl-1 PDZ,Dvl-1 PDZ,-1.5 kcal mol ^-1
same,Δ G Dvl-1 PDZ,Dvl-1 PDZ,-7.0 kcal mol ^-1
same,Δ H Dvl-1 PDZ,Dvl-1 PDZ,-8.5 kcal mol ^-1
Frizzled peptide 525(GKTLQSWRRFYH)536: Frizzled peptide with internal sequence KTXXXW recognized by Dvl PDZ domains,Kd,Dvl PDZ,~10 µM
